This assay deals with nsp14 methyltransferase from SARS-CoV-2 (Severe acute respiratory syndrome coronavirus 2, UniProt P0DTD1). Description: Nsp14 MTase activity inhibition in vitro (EchoMS assay). The class given is biochemical. The following applies: recombinant nsp14 protein expressed in E. coli; dose-response curve.

In the case of `Cc1noc(-c2ccccc2)c1CSC[C@H]1O[C@@H](n2cc(-c3ccc([N+](=O)[O-])nc3)c3c(N)ncnc32)[C@H](O)[C@@H]1O` [Compound 152, (2R,3R,4S,5S)-2-(4-Amino-5-(6-nitropyridin-3-yl)-7H-pyrrolo[2,3-d]pyrimidin-7-yl)-5-((((3-methyl-5-phenylisoxazol-4-yl)methyl)thio)methyl)tetrahydrofuran-3,4-diol], the IC50 (in general, the concentration that gives 50% inhibition) was 0.03 to 0.1 µM.

As for `Cc1noc(-c2ccccc2)c1CSC[C@H]1O[C@@H](n2nc(-c3cccc(C(N)=O)c3)c3c(N)ncnc32)[C@H](O)[C@@H]1O` [Compound 221b, 3-(4-Amino-1-((2R,3R,4S,5S)-3,4-dihydroxy-5-((((3-methyl-5-phenylisoxazol-4-yl)methyl)thio)methyl)tetrahydrofuran-2-yl)-1H-pyrazolo[3,4-d]pyrimidin-3-yl)benzamide], the IC50 is 0.03 to 0.1 µM.

For the compound `Cc1noc(-c2ccccc2)c1CSC[C@H]1O[C@@H](n2cc(-c3ccc(-c4cccnc4)cc3)c3c(N)ncnc32)[C@H](O)[C@@H]1O` [Compound 187], the IC50 lay in the range of 0.03 to 0.1 µM.

On to `Cn1cnc(-c2ccccc2)c1CSC[C@H]1O[C@@H](n2cc(-c3ccc(C#N)cc3)c3c(N)ncnc32)[C@H](O)[C@@H]1O` [Compound 230b, 4-(4-Amino-7-((2R,3R,4S,5S)-3,4-dihydroxy-5-((((1-methyl-4-phenyl-1H-imidazol-5-yl)methyl)thio)methyl)tetrahydrofuran-2-yl)-7H-pyrrolo[2,3-d]pyrimidin-5-yl)benzonitrile], for which the IC50 lay within 0.1 to 0.5 µM.

On to `Cc1n[nH]c(-c2ccccc2)c1CSC[C@H]1O[C@@H](n2ccc3c(N)ncnc32)[C@H](O)[C@@H]1O` [Compound 51c, (2R,3R,4S,5S)-2-(4-Amino-7H-pyrrolo[2,3-d]pyrimidin-7-yl)-5-((((3-methyl-5-phenyl-1H-pyrazol-4-yl)methyl)thio)methyl)tetrahydrofuran-3,4-diol], for which the half-inhibitory concentration (IC50) lay within 0.1 to 0.5 µM.

In the case of `Cc1noc(-c2ccc3c(c2)OCO3)c1CSC[C@H]1O[C@@H](n2cc(C#Cc3cncnc3)c3c(N)ncnc32)[C@H](O)[C@@H]1O` [Compound 243c, (2R,3R,4S,5S)-2-(4-Amino-5-(pyrimidin-5-ylethynyl)-7H-pyrrolo[2,3-d]pyrimidin-7-yl)-5-((((5-(benzo[d][1,3]dioxol-5-yl)-3-methylisoxazol-4-yl)methyl)thio)methyl)tetrahydrofuran-3,4-diol], the 50% inhibitory concentration (IC50) was 0.01 to 0.03 µM.

As for `Cc1noc(-c2ccccc2)c1CSC[C@H]1O[C@@H](n2cc(C#Cc3ncc[nH]3)c3c(N)ncnc32)[C@H](O)[C@@H]1O` [Compound 178b, (2R,3R,4S,5S)-2-(5-((1H-Imidazol-2-yl)ethynyl)-4-amino-7H-pyrrolo[2,3-d]pyrimidin-7-yl)-5-((((3-methyl-5-phenylisoxazol-4-yl)methyl)thio)methyl)tetrahydrofuran-3,4-diol], the half-maximal inhibitory concentration (IC50) lay in the range of 0.03 to 0.1 µM.

Take `Cc1noc(-c2ccc3c(c2)OCO3)c1CSC[C@H]1O[C@@H](n2nc(-c3ccc(CC#N)cc3)c3c(N)ncnc32)[C@H](O)[C@@H]1O` [Compound 226, 2-(4-(4-Amino-1-((2R,3R,4S,5S)-5-((((5-(benzo[d][1,3]dioxol-5-yl)-3-methylisoxazol-4-yl)methyl)thio)methyl)-3,4-dihydroxytetrahydrofuran-2-yl)-1H-pyrazolo[3,4-d]pyrimidin-3-yl)phenyl)acetonitrile]: the IC50 lay in the range of 0.01 to 0.03 µM.

On to `Cc1noc(-c2ccccc2)c1CSC[C@H]1O[C@@H](n2cc(C(C)C)c3c(N)ncnc32)[C@H](O)[C@@H]1O` [Compound 129b], for which the IC50 fell in the range of 0.1 to 0.5 µM.

`Cc1noc(-c2ccccc2)c1CSC[C@H]1O[C@@H](n2cc(Cc3ccc4ccccc4c3)c3c(N)ncnc32)[C@H](O)[C@@H]1O` [Compound 186b, (2R,3R,4S,5S)-2-(4-Amino-5-(naphthalen-2-ylmethyl)-7H-pyrrolo[2,3-d]pyrimidin-7-yl)-5-((((3-methyl-5-phenylisoxazol-4-yl)methyl)thio)methyl)tetrahydrofuran-3,4-diol]: the IC50 is 0.5 to 2 µM.

As to `Nc1ncnc2c1ccn2[C@@H]1O[C@H](CSCc2c(-c3ccccc3)noc2-c2ccccc2)[C@@H](O)[C@H]1O` [Compound 109c, (2R,3R,4S,5S)-2-(4-Amino-7H-pyrrolo[2,3-d]pyrimidin-7-yl)-5-((((3,5-diphenylisoxazol-4-yl)methyl)thio)methyl)tetrahydrofuran-3,4-diol], the concentration for half-maximal inhibition (IC50) lay in the range of 0.1 to 0.5 µM.

With `Cc1noc(-c2ccccc2)c1CSC[C@H]1O[C@@H](n2cc(/C=C/c3ccccc3)c3c(N)ncnc32)[C@H](O)[C@@H]1O` [Compound 181b, (2R,3R,4S,5S)-2-(4-Amino-5-((E)-styryl)-7H-pyrrolo[2,3-d]pyrimidin-7-yl)-5-((((3-methyl-5-phenylisoxazol-4-yl)methyl)thio)methyl)tetrahydrofuran-3,4-diol], the concentration for half-maximal inhibition (IC50) was 0.1 to 0.5 µM.

Consider `Cc1noc(-c2ccccc2)c1CSC[C@H]1O[C@@H](n2cc(CCc3cncnc3)c3c(N)ncnc32)[C@H](O)[C@@H]1O` [Compound 183, (2R,3R,4S,5S)-2-(4-Amino-5-(2-(pyrimidin-5-yl)ethyl)-7H-pyrrolo[2,3-d]pyrimidin-7-yl)-5-((((3-methyl-5-phenylisoxazol-4-yl)methyl)thio)methyl)tetrahydrofuran-3,4-diol], for which the concentration for half-maximal inhibition (IC50) lay within 0.03 to 0.1 µM.

As to `C=Cc1cn([C@@H]2O[C@H](CSCc3c(C)noc3-c3ccccc3)[C@@H](O)[C@H]2O)c2ncnc(N)c12` [Compound 139b, (2R,3R,4S,5S)-2-(4-Amino-5-vinyl-7H-pyrrolo[2,3-d]pyrimidin-7-yl)-5-((((3-methyl-5-phenylisoxazol-4-yl)methyl)thio)methyl)tetrahydrofuran-3,4-diol], the IC50 lay within 0.5 to 2 µM.

Turning to `COc1ccc(-c2onc(C)c2CSC[C@H]2O[C@@H](n3ccc4c(N)ncnc43)[C@H](O)[C@@H]2O)cc1` [Compound 94c, (2R,3R,4S,5S)-2-(4-Amino-7H-pyrrolo[2,3-d]pyrimidin-7-yl)-5-((((5-(4-methoxyphenyl)-3-methylisoxazol-4-yl)methyl)thio)methyl)tetrahydrofuran-3,4-diol], the IC50 fell in the range of 0.01 to 0.03 µM.

Regarding `Cc1noc(-c2cccc3ccccc23)c1CSC[C@H]1O[C@@H](n2ccc3c(N)ncnc32)[C@H](O)[C@@H]1O` [Compound 100c, (2R,3R,4S,5S)-2-(4-Amino-7H-pyrrolo[2,3-d]pyrimidin-7-yl)-5-((((3-methyl-5-(naphthalen-1-yl)isoxazol-4-yl)methyl)thio)methyl)tetrahydrofuran-3,4-diol], the IC50 is 0.01 to 0.03 µM.

On to `Nc1ncnc2c1ccn2[C@@H]1O[C@H](CSCc2csnc2-c2ccccc2)[C@@H](O)[C@H]1O` [Compound 105c, (2R,3R,4S,5S)-2-(4-Amino-7H-pyrrolo[2,3-d]pyrimidin-7-yl)-5-((((3-phenylisothiazol-4-yl)methyl)thio)methyl)tetrahydrofuran-3,4-diol], for which the concentration for half-maximal inhibition (IC50) was 0.5 to 2 µM.

`Cc1noc(-c2ccc(N)cc2)c1CSC[C@H]1O[C@@H](n2cc(C#Cc3cncnc3)c3c(N)ncnc32)[C@H](O)[C@@H]1O` [Compound 241c, (2R,3R,4S,5S)-2-(4-Amino-5-(pyrimidin-5-ylethynyl)-7H-pyrrolo[2,3-d]pyrimidin-7-yl)-5-((((5-(4-aminophenyl)-3-methylisoxazol-4-yl)methyl)thio)methyl)tetrahydrofuran-3,4-diol]: the IC50 is 0.01 to 0.03 µM.

On to `Cc1noc(-c2ccccc2)c1CSC[C@H]1O[C@@H](n2nc(-c3ccc(C#N)cc3)c3c(N)ncnc32)[C@H](O)[C@@H]1O` [Compound 219b, 4-(4-Amino-1-((2R,3R,4S,5S)-3,4-dihydroxy-5-((((3-methyl-5-phenylisoxazol-4-yl)methyl)thio)methyl)tetrahydrofuran-2-yl)-1H-pyrazolo[3,4-d]pyrimidin-3-yl)benzonitrile], for which the half-maximal inhibitory concentration (IC50) lay in the range of 0.03 to 0.1 µM.

For the compound `Cc1noc(-c2ccccc2)c1CSC[C@H]1O[C@@H](n2cc(C3CCCC3)c3c(N)ncnc32)[C@H](O)[C@@H]1O` [Compound 133b, (2R,3R,4S,5S)-2-(4-Amino-5-cyclopentyl-7H-pyrrolo[2,3-d]pyrimidin-7-yl)-5-((((3-methyl-5-phenylisoxazol-4-yl)methyl)thio)methyl)tetrahydrofuran-3,4-diol], the concentration for half-maximal inhibition (IC50) was in the range of 0.1 to 0.5 µM.

For the compound `Cc1noc(-c2ccccc2)c1CSC[C@H]1O[C@@H](n2cc(C3=CCC(C#N)CC3)c3c(N)ncnc32)[C@H](O)[C@@H]1O` (stereo partly drawn) [Compound 141b, 4-(4-Amino-7-((2R,3R,4S,5S)-3,4-dihydroxy-5-((((3-methyl-5-phenyhsoxazol-4-yl)methyl)thio)methyl)tetrahydrofuran-2-yl)-7H-pyrrolo[2,3-d]pyrimidin-5-yl)cyclohex-3-ene-1-carbonitrile], the IC50 was 0.01 to 0.03 µM.

For the compound `CC(C)c1onc(-c2ccccc2)c1CSC[C@H]1O[C@@H](n2ccc3c(N)ncnc32)[C@H](O)[C@@H]1O` [Compound 107c, (2R,3R,4S,5S)-2-(4-Amino-7H-pyrrolo[2,3-d]pyrimidin-7-yl)-5-((((5-isopropyl-3-phenylisoxazol-4-yl)methyl)thio)methyl)tetrahydrofuran-3,4-diol], the IC50 fell in the range of 0.5 to 2 µM.

Turning to `Cc1noc(-c2ccccc2)c1CSC[C@H]1O[C@@H](n2cc(-c3ccc(-c4ccccn4)cc3)c3c(N)ncnc32)[C@H](O)[C@@H]1O` [Compound 188], the IC50 lay within 0.03 to 0.1 µM.

`Cc1scc(-c2ccccc2)c1CSC[C@H]1O[C@@H](n2ccc3c(N)ncnc32)[C@H](O)[C@@H]1O` [Compound 52c, (2R,3R,4S,5S)-2-(4-Amino-7H-pyrrolo[2,3-d]pyrimidin-7-yl)-5-((((2-methyl-4-phenylthiophen-3-yl)methyl)thio)methyl)tetrahydrofuran-3,4-diol]: the IC50 is 0.5 to 2 µM.

Regarding `Cc1noc(-c2ccc([N+](=O)[O-])cc2)c1CSC[C@H]1O[C@@H](n2ccc3c(N)ncnc32)[C@H](O)[C@@H]1O` [Compound 93c, (2R,3R,4S,5S)-2-(4-Amino-7H-pyrrolo[2,3-d]pyrimidin-7-yl)-5-((((3-methyl-5-(4-nitrophenyl)isoxazol-4-yl)methyl)thio)methyl)tetrahydrofuran-3,4-diol], the concentration for half-maximal inhibition (IC50) fell in the range of 0.1 to 0.5 µM.

The values above are taken from patent publication EP4553080A1, “NUCLEOSIDE DERIVATIVES AS ANTIVIRAL AGENTS AGAINST CORONAVIRUSES” (Ustav Organicke Chemie a Biochemie AV CR, v.v.i., priority 2023, dated 2025).
